Results published in US11787825B2 (priority 2021, dated 2023).
Like-named read-outs stand apart in the source and are kept apart here.

[1] = 0.1N HCL, 1.0% DMSO, 24-hour incubation at ambient temperature, maximum theoretical compound concentration 100 μM
[2] = 1×PBS buffer (pH 7.4), 1.0% DMSO, 24-hour incubation at ambient temperature, maximum theoretical compound concentration 100 μM

Row | SMILES | pH 2 solubility [1] | pH 7 solubility [2] | pH 2 solubility (pH 2) | pH 7 solubility (pH 7.4)
1 | C[C@H](CC(=O)O)C(=O)N(c1nn(CC(F)(F)F)c2c(-c3ccc(C#CC(C)(C)S(C)(=O)=O)nc3[C@H](Cc3cc(F)cc(F)c3)NC(=O)Cn3nc(C(F)(F)F)c4c3C(F)(F)[C@@H]3C[C@H]43)ccc(Cl)c12)S(C)(=O)=O [Compound 26, (R)-4-(N-(4-chloro-7-(2-((S)-1-(2-((3bS,4aR)-5,5-difluoro-3-(trifluoromethyl)-3b,4,4a,5-tetrahydro-1H-cyclopropa[3,4]cyclopenta[1,2-c]pyrazol-1-yl)acetamido)-2-(3,5-difluorophenyl)ethyl)-6-(3-methyl-3-(methylsulfonyl)but-1-yn-1-yl)pyridin-3-yl)-1-(2,2,2-trifluoroethyl)-1H-indazol-3-yl)methylsulfonamido)-3-methyl-4-oxobutanoic acid] | 1/1 μM | 1/1 μM |  | 
2 | CC(C)(CC(=O)O)C(=O)N(c1nn(CC(F)(F)F)c2c(-c3ccc(C#CC(C)(C)S(C)(=O)=O)nc3[C@H](Cc3cc(F)cc(F)c3)NC(=O)Cn3nc(C(F)(F)F)c4c3C(F)(F)[C@@H]3C[C@H]43)ccc(Cl)c12)S(C)(=O)=O [Compound 15, 4-(N-(4-chloro-7-(2-((S)-1-(2-((3bS,4aR)-5,5-difluoro-3-(trifluoromethyl)-3b,4,4a,5-tetrahydro-1H-cyclopropa[3,4]cyclopenta[1,2-c]pyrazol-1-yl)acetamido)-2-(3,5-difluorophenyl)ethyl)-6-(3-methyl-3-(methylsulfonyl)but-1-yn-1-yl)pyridin-3-yl)-1-(2,2,2-trifluoroethyl)-1H-indazol-3-yl)methylsulfonamido)-3,3-dimethyl-4-oxobutanoic acid] | 1/1 μM | 1/1 μM |  | 
3 | CC(C)(C#Cc1ccc(-c2ccc(Cl)c3c(N(C(=O)C[N+](C)(C)C)S(C)(=O)=O)nn(CC(F)(F)F)c23)c([C@H](Cc2cc(F)cc(F)c2)NC(=O)Cn2nc(C(F)(F)F)c3c2C(F)(F)[C@@H]2C[C@H]32)n1)S(C)(=O)=O [Compound 5, 2-(N-(4-chloro-7-(2-((S)-1-(2-((3bS,4aR)-5,5-difluoro (trifluoromethyl)-3b,4,4a,5-tetrahydro-1H-cyclopropa[3,4]cyclopenta[1,2-c]pyrazolyl)acetamido)-2-(3,5-difluorophenyl)ethyl)-6-(3-methyl-3-(methylsulfonyl)but-1-ynyl)pyridin-3-yl)-1-(2,2,2-trifluoroethyl)-1H-indazol-3-yl)methylsulfonamido)-N,N,N-trimethyl-2-oxoethan-1-aminium] | 45 μM | 6 μM |  | 
4 | CC(C)(CC(=O)N(c1nn(CC(F)(F)F)c2c(-c3ccc(C#CC(C)(C)S(C)(=O)=O)nc3[C@H](Cc3cc(F)cc(F)c3)NC(=O)Cn3nc(C(F)(F)F)c4c3C(F)(F)[C@@H]3C[C@H]43)ccc(Cl)c12)S(C)(=O)=O)c1c(CC(=O)O)cc(C(N)=O)cc1OP(=O)(O)O [Compound 68] |  |  | <1/65 μM | <1/65 μM
5 | COCCOCCOCCOCCOCC(=O)N(c1nn(CC(F)(F)F)c2c(-c3ccc(C#CC(C)(C)S(C)(=O)=O)nc3[C@H](Cc3cc(F)cc(F)c3)NC(=O)Cn3nc(C(F)(F)F)c4c3C(F)(F)[C@@H]3C[C@H]43)ccc(Cl)c12)S(C)(=O)=O [Compound 9, N-(4-chloro-7-(2-((S)-1-(2-((3bS,4aR)-5,5-difluoro-3-(trifluoromethyl)-3b,4,4a,5-tetrahydro-1H-cyclopropa[3,4]cyclopenta[1,2-c]pyrazol-1-yl)acetamido)-2-(3,5-difluorophenyl)ethyl)-6-(3-methyl-3-(methylsulfonyl)but-1-ynyl)pyridin-3-yl)-1-(2,2,2-trifluoroethyl)-1H-indazol-3-yl)-N-(methylsulfonyl)-2,5,8,11,14-pentaoxahexadecan-16-amide] | 1/1 μM | 1/1 μM |  | 
6 | Cc1cc(CC(=O)NCC(=O)O)c(C(C)(C)CC(=O)N(c2nn(CC(F)(F)F)c3c(-c4ccc(C#CC(C)(C)S(C)(=O)=O)nc4[C@H](Cc4cc(F)cc(F)c4)NC(=O)Cn4nc(C(F)(F)F)c5c4C(F)(F)[C@@H]4C[C@H]54)ccc(Cl)c23)S(C)(=O)=O)c(OP(=O)(O)O)c1 [Compound 63, (2-(2-(4-(N-(4-chloro-7-(2-((S)-1-(2-((3bS,4aR)-5,5-difluoro-3-(trifluoromethyl)-3b,4,4a,5-tetrahydro-1H-cyclopropa[3,4]cyclopenta[1,2-c]pyrazol-1-yl)acetamido)-2-(3,5-difluorophenyl)ethyl)-6-(3-methyl-3-(methylsulfonyl)but-1-yn-1-yl)pyridin-3-yl)-1-(2,2,2-trifluoroethyl)-1H-indazol-3-yl)methylsulfonamido)-2-methyl-4-oxobutan-2-yl)-5-methyl-3-(phosphonooxy)phenyl)acetyl)glycine] |  |  | 1/85 μM | 1/85 μM
7 | CC(C)(CC(=O)N(c1nn(CC(F)(F)F)c2c(-c3ccc(C#CC(C)(C)S(C)(=O)=O)nc3[C@H](Cc3cc(F)cc(F)c3)NC(=O)Cn3nc(C(F)(F)F)c4c3C(F)(F)[C@@H]3C[C@H]43)ccc(Cl)c12)S(C)(=O)=O)c1c(CC(=O)N[C@@H](CC(=O)O)C(=O)O)cccc1OP(=O)(O)O [Compound 71, (2-(2-(4-(N-(4-chloro-7-(2-((S)-1-(2-((3bS,4aR)-5,5-difluoro-3-(trifluoromethyl)-3b,4,4a,5-tetrahydro-1H-cyclopropa[3,4]cyclopenta[1,2-c]pyrazol-1-yl)acetamido)-2-(3,5-difluorophenyl)ethyl)-6-(3-methyl-3-(methylsulfonyl)but-1-yn-1-yl)pyridin-3-yl)-1-(2,2,2-trifluoroethyl)-1H-indazol-3-yl)methylsulfonamido)-2-methyl-4-oxobutan-2-yl)-3-(phosphonooxy)phenyl)acetyl)-L-aspartic acid] |  |  | 2/88 μM | 2/88 μM
8 | CC(C)(C#Cc1ccc(-c2ccc(Cl)c3c(N(C(=O)[C@@H](N)CCCCN)S(C)(=O)=O)nn(CC(F)(F)F)c23)c([C@H](Cc2cc(F)cc(F)c2)NC(=O)Cn2nc(C(F)(F)F)c3c2C(F)(F)[C@@H]2C[C@H]32)n1)S(C)(=O)=O [Compound 11, (S)-2,6-diamino-N-(4-chloro-7-(2-((S)-1-(2-((3bS,4aR)-5,5-difluoro-3-(trifluoromethyl)-3b,4,4a,5-tetrahydro-1H-cyclopropa[3,4]cyclopenta[1,2-c]pyrazol-1-yl)acetamido)-2-(3,5-difluorophenyl)ethyl)-6-(3-methyl-3-(methylsulfonyl)but-1-yn-1-yl)pyridin-3-yl)-1-(2,2,2-trifluoroethyl)-1H-indazol-3-yl)-N-(methylsulfonyl)hexanamide] | 100 μM | 43 μM |  | 
